The target of assay [1] is T1, human calcitonin (a) receptor in BHK570 cells (Homo sapiens, UniProt P30988).
T1 construct: expressed in transfected cells
T1 sequence (P30988 25-474): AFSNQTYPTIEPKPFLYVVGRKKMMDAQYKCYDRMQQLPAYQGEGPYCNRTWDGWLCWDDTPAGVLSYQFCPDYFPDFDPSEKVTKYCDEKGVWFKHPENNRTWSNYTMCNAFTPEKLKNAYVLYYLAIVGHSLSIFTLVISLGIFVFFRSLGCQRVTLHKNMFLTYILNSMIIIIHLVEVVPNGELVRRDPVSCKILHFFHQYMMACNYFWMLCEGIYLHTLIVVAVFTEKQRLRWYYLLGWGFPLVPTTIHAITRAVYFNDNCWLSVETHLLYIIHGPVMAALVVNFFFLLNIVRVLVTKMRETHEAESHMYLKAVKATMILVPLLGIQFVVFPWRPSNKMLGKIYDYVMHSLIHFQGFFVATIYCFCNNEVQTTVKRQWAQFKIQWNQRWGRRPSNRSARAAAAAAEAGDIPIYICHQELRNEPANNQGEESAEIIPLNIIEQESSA
As to the kind of experiment: ASSAY (II)a functional assay, human calcitonin receptor (CRE luciferase). Type of assay: cell-based. The conditions noted are these: read-out: hCTR funct. EC50. An outline of the steps: (§1)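 Readout is luminescence from a cAMP-responsive CRE-luc reporter, developed with LucLite for 30 min at room temperature. Cells were treated for 3 h at 37 °C in 10% FBS/DMEM buffered with 10 mM Hepes (pH 7.4).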

For assay [2], the target named is T2, human amylin receptor (membranes from Amylin 3(a)/CRE-luc cells) (Homo sapiens, UniProt O60896+P30988).
T2 construct: expressed in transfected cells
T2 sequence (P30988 25-474): T1 sequence (P30988 25-474)
T2 sequence (O60896 24-148 partner): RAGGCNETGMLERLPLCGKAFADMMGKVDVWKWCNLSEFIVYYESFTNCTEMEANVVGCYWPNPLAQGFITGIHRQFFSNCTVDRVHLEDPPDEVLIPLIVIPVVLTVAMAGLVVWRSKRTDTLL
As to the kind of experiment: ASSAY (V) binding to the human amylin receptor (SPA, 125I-rat amylin).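 As to all read-outs here: competition binding of cell membranes (35 ng/µL) mixed with SPA beads in 384-well plates at 40 µL total volume, read by scintillation counting.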 The conditions noted are these: for IC50: Table 4, read-out: hAmylin-R bind IC50.

A further assay addresses T3, rat calcitonin receptor (Rattus norvegicus, UniProt P32214).
T3 construct: expressed in transfected cells; host or cells: BHK tk'ts 13 (transient, FuGENE 6), membranes
T3 sequence (P32214 25-479 isoform P32214-2 limits assumed): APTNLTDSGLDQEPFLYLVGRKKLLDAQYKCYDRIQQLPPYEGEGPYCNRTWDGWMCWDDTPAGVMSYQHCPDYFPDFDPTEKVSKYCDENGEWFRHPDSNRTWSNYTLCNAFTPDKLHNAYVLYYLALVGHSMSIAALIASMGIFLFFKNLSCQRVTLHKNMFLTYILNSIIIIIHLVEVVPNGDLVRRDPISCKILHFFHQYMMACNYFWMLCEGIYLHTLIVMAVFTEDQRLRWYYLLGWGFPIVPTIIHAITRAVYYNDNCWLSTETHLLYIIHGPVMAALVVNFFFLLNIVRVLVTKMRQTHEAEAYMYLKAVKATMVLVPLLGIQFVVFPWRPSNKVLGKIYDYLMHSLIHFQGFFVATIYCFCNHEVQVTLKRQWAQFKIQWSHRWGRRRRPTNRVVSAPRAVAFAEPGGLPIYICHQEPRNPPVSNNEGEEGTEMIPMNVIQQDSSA
The experiment in a line: ASSAY (VIII) binding to the rat calcitonin receptor. Particulars: Table 7, read-out: rCTR bind IC50. The method, boiled down: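 Cell membranes for binding came from BHK tk′ts 13 cells harvested approximately 48 hours after transient transfection with the rat receptor.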

Assay [3] deals with T4, human amylin 3(a) receptor (human calcitonin receptor + RAMP-3) in BHK570 cells (Homo sapiens, UniProt O60896+P30988).
T4 construct: expressed in transfected cells
The experiment in a line: ASSAY (II)a functional assay, human amylin receptor (CRE luciferase). Type of assay: cell-based. Particulars: for EC50: human amylin receptor functional potency, assay (II), read-out: hAmylin-R funct. EC50. An outline of the steps:
as §1

The mark [4] stands for this setting: Table 5, selectivity, hCTR bind IC50 / hAmylin-R bind IC50.
Where [5] appears, read: Table 7, human binding selectivity, included for comparison.
The mark [6] stands for this setting: Table 7a (preferred compounds), human binding selectivity, included for comparison.
Where [7] appears, read: hCTR funct. EC50 / hAmylin-R funct. EC50.
Where [8] appears, read: hCTR funct. EC50 divided by hAmylin-R funct. EC50.
Where [9] appears, read: hCTR funct. EC50 over hAmylin-R funct. EC50.
Setting [10] is: human functional selectivity: hCTR funct. EC50 / hAmylin-R funct. EC50.

Numbered stars: 1 amine (or outer) side, 2 acyl side, 3 side chain; on linkers, the order of the positions; unused ones are H or OH. Bridge positions count the residues as written; N and C are the ends. Side chains are listed from the residue outwards. Peptide text beside a SMILES is read from it. * marks the point of attachment. C20 diacid = O=C(O)CCCCCCCCCCCCCCCCCCC(=O)*; γGlu = O=C(O)[C@H](CCC(=O)[*:2])N[*:1]; AEEA = NCCOCCOCC(=O)O

`CC[C@H](C)[C@H](NC(=O)[C@H](C)NC(=O)CNC(=O)[C@H](Cc1ccccc1)NC(=O)[C@H](CC(N)=O)NC(=O)[C@@H]1CCCN1C(=O)[C@H](CO)NC(=O)[C@H](CO)NC(=O)[C@H](Cc1c[nH]cn1)NC(=O)[C@H](CCCNC(=N)N)NC(=O)[C@H](CC(C)C)NC(=O)[C@H](Cc1ccccc1)NC(=O)[C@H](CCC(=O)O)NC(=O)[C@H](C)NC(=O)[C@H](CC(C)C)NC(=O)[C@H](CCCNC(=N)N)NC(=O)[C@H](CCC(N)=O)NC(=O)[C@@H](NC(=O)[C@H](C)NC(=O)[C@@H]1CSSC[C@H](NC(=O)[C@H](CCCCN)NC(=O)CC[C@H](NC(=O)CCCCCCCCCCCCCCCCCCC(=O)O)C(=O)O)C(=O)N[C@@H](CC(N)=O)C(=O)N[C@@H]([C@@H](C)O)C(=O)N[C@@H](C)C(=O)N[C@@H]([C@@H](C)O)C(=O)N1)[C@@H](C)O)C(=O)N1CCC[C@H]1C(=O)N[C@@H](CO)C(=O)N[C@@H](CO)C(=O)N[C@H](C(=O)N[C@@H](CC(N)=O)C(=O)N[C@H](C(=O)NCC(=O)N[C@@H](CO)C(=O)N[C@@H](Cc1c[nH]cn1)C(=O)N[C@H](C(=O)N[C@@H](Cc1ccc(O)cc1)C(N)=O)[C@@H](C)O)C(C)C)[C@@H](C)O` [Example 18] ({C20 diacid-γGlu}-KCNTATCATQRLAEFLRHSSPNFGAIPSSTNVGSHTY-NH2; disulfide 2-7): the EC50 in assay [1] worked out at 0.742 nM; in assay [3], 0.154 nM. For the same compound, the IC50 amounted to 0.554 nM in assay [2] and 13 nM on rat calcitonin receptor. Also, the “Ratio hCT/hAmylin binding” value in assay [2] (setting [4]), in assay [2] (setting [5]) and in assay [2] (setting [6]) was 9.2 each time. Moreover, the “Ratio hCT/hAmylin funct.” value in assay [3] (setting [7]), in assay [3] (setting [8]), in assay [3] (setting [9]) and in assay [3] (setting [10]) was 4.8 each time.

Consider `CC[C@H](C)[C@H](NC(=O)[C@H](C)NC(=O)CNC(=O)[C@H](Cc1ccccc1)NC(=O)[C@H](CC(N)=O)NC(=O)[C@@H]1CCCN1C(=O)[C@H](CO)NC(=O)[C@H](CO)NC(=O)[C@H](Cc1c[nH]cn1)NC(=O)[C@H](CCCNC(=N)N)NC(=O)[C@H](CC(C)C)NC(=O)[C@H](Cc1ccccc1)NC(=O)[C@H](CC(N)=O)NC(=O)[C@H](C)NC(=O)[C@H](CC(C)C)NC(=O)[C@H](CCCNC(=N)N)NC(=O)[C@H](CCC(N)=O)NC(=O)[C@@H](NC(=O)[C@H](C)NC(=O)[C@@H]1CSSC[C@H](NC(=O)[C@@H](N)CCCCNC(=O)COCCOCCNC(=O)CC[C@H](NC(=O)CCCCCCCCCCCCCCCCCCC(=O)O)C(=O)O)C(=O)N[C@@H](CC(N)=O)C(=O)N[C@@H]([C@@H](C)O)C(=O)N[C@@H](C)C(=O)N[C@@H]([C@@H](C)O)C(=O)N1)[C@@H](C)O)C(=O)N1CCC[C@H]1C(=O)N[C@@H](CO)C(=O)N[C@@H](CO)C(=O)N[C@H](C(=O)N[C@@H](CC(N)=O)C(=O)N[C@H](C(=O)NCC(=O)N[C@@H](CO)C(=O)N[C@@H](CCC(=O)O)C(=O)N[C@H](C(=O)N[C@@H](Cc1ccc(O)cc1)C(N)=O)[C@@H](C)O)C(C)C)[C@@H](C)O` [Example 26] (H-K([AEEA-γGlu-C20 diacid])CNTATCATQRLANFLRHSSPNFGAIPSSTNVGSETY-NH2; disulfide 2-7; N-terminus assumed), for which the EC50 in assay [1] stood at 6.34 nM; in assay [3], 0.212 nM. Also, the IC50 in assay [2] amounted to 0.532 nM; on rat calcitonin receptor, 152 nM. Further, the “Ratio hCT/hAmylin binding” value in assay [2] (setting [4]) is 47.5; in assay [2] (Table 5a, selectivity, hCTR bind IC50 / hAmylin-R bind IC50), 47.5; in assay [2] (Table 5b, selectivity, hCTR bind IC50 / hAmylin-R bind IC50), 47.5; in assay [2] (Table 5c, selectivity, hCTR bind IC50 / hAmylin-R bind IC50), 47.5; in assay [2] (setting [5]) it was 47.5; in assay [2] (setting [6]), 47.5. Besides, the “Ratio hCT/hAmylin binding” value in assay [2] (ratio of human calcitonin receptor binding IC50 to human amylin receptor binding IC50) was 47.5. Moreover, the “Ratio hCT/hAmylin funct.” value in assay [3] (setting [8]), in assay [3] (setting [9]) and in assay [3] (setting [10]) was 29.9 each time.

With `CC[C@H](C)[C@H](NC(=O)[C@H](C)NC(=O)CNC(=O)[C@H](Cc1ccccc1)NC(=O)[C@H](CC(N)=O)NC(=O)[C@@H]1CCCN1C(=O)[C@H](CO)NC(=O)[C@H](CO)NC(=O)[C@H](Cc1c[nH]cn1)NC(=O)[C@H](CCCNC(=N)N)NC(=O)[C@H](CC(C)C)NC(=O)[C@H](Cc1ccccc1)NC(=O)[C@H](CCC(=O)O)NC(=O)[C@H](C)NC(=O)[C@H](CC(C)C)NC(=O)[C@H](CCCNC(=N)N)NC(=O)[C@H](CCC(N)=O)NC(=O)[C@@H](NC(=O)[C@H](C)NC(=O)[C@@H]1CSSC[C@H](NC(=O)[C@H](CCCCN)NC(=O)CC[C@H](NC(=O)CCCCCCCCCCCCCCCCCCC(=O)O)C(=O)O)C(=O)N[C@@H](CC(N)=O)C(=O)N[C@@H]([C@@H](C)O)C(=O)N[C@@H](C)C(=O)N[C@@H]([C@@H](C)O)C(=O)N1)[C@@H](C)O)C(=O)N[C@@H](CC(C)C)C(=O)N1CCC[C@H]1C(=O)N[C@@H](CO)C(=O)N[C@H](C(=O)N[C@@H](CC(N)=O)C(=O)N[C@H](C(=O)NCC(=O)N[C@@H](CO)C(=O)N[C@@H](CCC(=O)O)C(=O)N[C@H](C(=O)N[C@@H](Cc1ccc(O)cc1)C(N)=O)[C@@H](C)O)C(C)C)[C@@H](C)O` [Example 33] ({C20 diacid-γGlu}-KCNTATCATQRLAEFLRHSSPNFGAILPSTNVGSETY-NH2; disulfide 2-7), the EC50 in assay [1] came out at 0.528 nM; in assay [3], 0.243 nM. For the same compound, the IC50 in assay [2] worked out at 0.915 nM; on rat calcitonin receptor, 28.9 nM. The “Ratio hCT/hAmylin binding” value in assay [2] (setting [4]), in assay [2] (setting [5]) and in assay [2] (setting [6]) was 3.9 throughout. Also, the “Ratio hCT/hAmylin funct.” value in assay [3] (setting [7]), in assay [3] (setting [9]) and in assay [3] (setting [10]) was 2.2 in each case.

Consider `CC[C@H](C)[C@H](NC(=O)[C@H](C)NC(=O)CNC(=O)[C@H](Cc1ccccc1)NC(=O)[C@H](CC(N)=O)NC(=O)[C@@H]1CCCN1C(=O)[C@H](CO)NC(=O)[C@H](CO)NC(=O)[C@H](Cc1c[nH]cn1)NC(=O)[C@H](CCCNC(=N)N)NC(=O)[C@H](CC(C)C)NC(=O)[C@H](Cc1ccccc1)NC(=O)[C@H](CCC(=O)O)NC(=O)[C@H](C)NC(=O)[C@H](CC(C)C)NC(=O)[C@H](CCCNC(=N)N)NC(=O)[C@H](CCC(N)=O)NC(=O)[C@@H](NC(=O)[C@H](C)NC(=O)[C@@H]1CSSC[C@H](NC(=O)[C@H](CCCCN)NC(=O)CC[C@H](NC(=O)CCCCCCCCCCCCCCCCCCC(=O)O)C(=O)O)C(=O)N[C@@H](CC(N)=O)C(=O)N[C@@H]([C@@H](C)O)C(=O)N[C@@H](C)C(=O)N[C@@H]([C@@H](C)O)C(=O)N1)[C@@H](C)O)C(=O)N1CCC[C@H]1C(=O)N[C@@H](CO)C(=O)N1CCC[C@H]1C(=O)N[C@H](C(=O)N[C@@H](CC(N)=O)C(=O)N[C@H](C(=O)NCC(=O)N[C@@H](CO)C(=O)N[C@@H](CC(N)=O)C(=O)N[C@H](C(=O)N[C@@H](Cc1ccc(O)cc1)C(N)=O)[C@@H](C)O)C(C)C)[C@@H](C)O` [Example 37] ({C20 diacid-γGlu}-KCNTATCATQRLAEFLRHSSPNFGAIPSPTNVGSNTY-NH2; disulfide 2-7 (inferred)), for which the EC50 is 0.372 nM in assay [1] and 0.092 nM in assay [3]. The IC50 is 0.97 nM in assay [2] and 7.35 nM on rat calcitonin receptor. Also, the “Ratio hCT/hAmylin binding” value in assay [2] (setting [4]), in assay [2] (setting [5]) and in assay [2] (setting [6]) was 2.3 throughout. Moreover, the “Ratio hCT/hAmylin funct.” value in assay [3] (setting [7]), in assay [3] (setting [8]), in assay [3] (setting [9]) and in assay [3] (setting [10]) was 4.0 throughout.
